# Non-standard residues stand in square brackets, D forms with d. Residues, ends and D or L forms follow the SMILES beside them.
# Assays:
# [1] = test system: C3H10t1/2 mesenchymal stem cells; experiment: Cytotoxicity of hydrogel towards mammalian cells, live/dead viability assay; type: cell-based, murine
# Method: The confocal images show live/dead viability assays performed using murine C3H10t1/2 mesenchymal stem cells that had been cultured for 24 h on (A) a 2 wt % MARG1 hydrogel surface and on (B) a TCTP control surface. This cell line was chosen because these cells are sensitive to their environment and thus good indicators of a material's cytotoxic properties.
# The images in FIGS. 5A,B are rendered in black and white, where the light areas represent cells that fluoresce green (live cells) and dark areas represent cells that fluoresce red (dead cells).
# C3H10t1/2 mesenchymal stem cells (ATCC # CCL-226) were cultured using Dulbecco's Modified Eagle's Medium (DMEM, Sigma Aldrich, D6546) supplemented with 10% Fetal Bovine Serum, 5 mM L-Glutamine, 50 μg/mL Gentamicin at 37° C. in 5% CO2. Cells were cultured in T75 cell culture flasks. Cells were kept in culture for seven passages and used for cellular viability on passage number 7. For cell plating, cells were trypsinized and counted using a hemacytometer. The resultant cell suspension was introduced to the hydrogel and control surfaces such that a cell loading density of 30,000 cells/cm^2 was achieved. These samples were incubated for 24 hours at 37° C., 5% CO2. […]
# [2] = test system: MSSA (methicillin-susceptible Staphylococcus aureus, ATCC 25923); experiment: Antibacterial assay: bacteria introduced onto hydrogel-coated TCTP surface, proliferation by OD625nm; type: cell-based; settings: 2 wt % hydrogel on TCTP, all bacterial cell loading densities, 24 h, compared to uncoated surface
# Method: (§1) The antibacterial activity of MARG1 hydrogels was assessed via two distinct assays. In the first assay, bacteria were introduced to the surface of tissue culture treated polystyrene (TCTP) coated with a ˜1-2 mm layer of the gel and its ability to inhibit bacterial proliferation was assessed. This assay measures the ability of MARG1 gels to thwart new infection at a particular site. Here, gels were formed directly on the polystyrene surface without the aid of shear-thin delivery. In the second assay, MARG1 gels were shear-thin delivered via syringe to agar surfaces infected with bacteria, and the ability of the gel to kill bacteria on contact was measured. This assay simulates the introduction of the MARG1 gel via syringe to a bacterial contaminated surface, such as a wound.
# Hydrogels for the antibacterial assays were prepared in separate wells of 96-well tissue culture-treated polystyrene plates (Costar 3595). […]
# (§2) For each assay, 100 μL of bacteria-free TSB was introduced onto the surface of the hydrogels. […] After this, bacterial growth was monitored by measuring OD625nm of the liquid above the gel by adding 100 μL of bacteria-free TSB to the surfaces, gently mixing and transferring the supernatant to a cuvette. Corrected OD625nm values were calculated to correct for dilution and to normalize for scattering that occurs for each individual bacterial strain. […]
# [3] = test system: MRSA (methicillin-resistant Staphylococcus aureus, ATCC 33591); experiment: as above; type: cell-based; settings: 2 wt % hydrogel on TCTP, 24 hr at 37° C.
# Method: as §1, with “This assay simulates the introduction of the MARG1 gel via syringe to a bacterial contaminated surface, such as a wound.” left out
# The gels were incubated for 24 hr at 37° C., and bacterial proliferation was quantitated by light scattering as described in Salick, D. A.; Kretsinger, J. K.; Pochan, D. J.; Schneider, J. P. J. Am. […]
# as §2
Molecule,Cytotoxicity towards mammalian cells ([1]; C3H10t1/2 cells cultured 24 h on 2 wt % hydrogel surface),"Viability of cells cultured on hydrogel surface versus TCTP control ([1]; C3H10t1/2 cells, 24 h, 2 wt % hydrogel surface)",MSSA proliferation on hydrogel-coated surface (OD) [2],MRSA proliferation on hydrogel-coated surface (OD) ([3]; challenged with 2×10^8 CFU/dm^2 MRSA),MRSA proliferation on hydrogel-coated surface (OD) ([3]; lower CFUs of MRSA)
"CC(C)[C@H](N)C(=O)N[C@@H](CCCCN)C(=O)N[C@H](C(=O)N[C@@H](CCCCN)C(=O)N[C@H](C(=O)N[C@@H](CCCNC(=N)N)C(=O)N[C@H](C(=O)N[C@@H](CCCCN)C(=O)N[C@H](C(=O)N1CCC[C@@H]1C(=O)N1CCC[C@H]1C(=O)N[C@H](C(=O)N[C@@H](CCCCN)C(=O)N[C@H](C(=O)N[C@@H](CCCCN)C(=O)N[C@H](C(=O)N[C@@H](CCCNC(=N)N)C(=O)N[C@H](C(=O)N[C@@H](CCCCN)C(=O)N[C@H](C(N)=O)C(C)C)C(C)C)C(C)C)C(C)C)[C@@H](C)O)C(C)C)C(C)C)C(C)C)C(C)C [MARG1, VKVKVRVKV^DPPTKVKVRVKV-NH2] (H-VKVKVRVKV[dP]PTKVKVRVKV-NH2)",non-cytotoxic,no significant difference,,,
VKVKVKVKV^DPPTKVKVKVKV-NH2 [MAX1],,,can inhibit bacterial proliferation,uninhibited MRSA proliferation,inhibiting MRSA at lower CFUs

# — US8426559B2, “Injectable β-hairpin peptide hydrogel that kills methicillin-resistant Staphylococcus aureus” (University of Delaware, priority 2009, dated 2013)
